Experimental findings from patent US7018641B1, “Materials and methods for the control of plant pathogens” (priority 2000, dated 2006) are described below.

Assay [1] has as its system Ralstonia solanacearum. Format: cell-based.
For assay [2], the system named is Ralstonia solanacearum. It is filed as cell-based. The source holds these as a separate data set.

SMILES strings stand for the structures.

`CC(C)=CCC/C(C)=C/CO` [Geraniol, geraniol]: in the assay on Ralstonia solanacearum [1] (compared to untreated control), the “reduction of population of Ralstonia solanacearum” value is on record as 89.5%. In addition, the volatile bactericidal activity result in the assay on Ralstonia solanacearum [1] (in words) is “volatile bactericidal activity”.

Turning to `Cc1ccc(C(C)C)c(O)c1` [Thymol, thymol], the “inhibition of the development of R. solanacearum colonies” value in the assay on Ralstonia solanacearum [2] (100 μg/ml concentration, FIG. 2) is reported as “entirely inhibited”. In the assay with Ralstonia solanacearum [2] (tested in vitro and in greenhouse, vapor effect for the oils), the “efficacy against Rs” value is “effective”.
